These results are taken from PubChem BioAssay AID1963872 (Molecular Pharmacology Branch, DTP, NCI, 2024).

pIC50: −log10 of the molar value. “And” between values parts separate entries of the source, which are not always exact repeats. Equal entries are not always repeated.

The subject of the experiment is KRAS patient-derived spheroids with HUVEC/MSC, viability. As to the kind of experiment: Anticancer human tumor 519858-162-T-J1-PDC patient-derived colon adenocarcinoma cell line growth inhibition [KRAS2]. The following applies: for viability, T/C: stronger effect = lower value. The source says: Multicellular complex tumor spheroid response to RAS pathway inhibitors in combination with a targeted agents in patient-derived cell lines with oncogenic KRAS variants from multiple cancer types
A high-throughput screen of multi-cell type tumor spheroids was designed to identify active combinations of targeted small molecules and KRAS pathway inhibitors. Complex spheroids include a stromal component modeled by human endothelial cells (HUVEC) and fibroblasts modeled by human mesenchymal stem cells (MSCs). The concentration ranges selected for each drug and investigational agent were based upon clinically achievable concentrations if the clinical Cmax of the agent was known.
Compounds. The drugs and investigational agents: BI-3406 (NSC825286), BAY-293 (NSC824723), batoprotafib (TNO155; NSC825523), sotorasib (AMG 510; NSC818433), MRTX1257 (NSC819558), elimusertib (BAY 1895344; NSC800525), molibresib (GSK525762; NSC774829), temuterkib (LY3214996; NSC803410), venetoclax (NSC766270), alisertib (NSC759677), olaparib (NSC753686), talazoparib (NSC767125), erdafitinib (NSC781556), ipatasertib (NSC767898), cabozantinib (NSC761068), nintedanib (NSC756659), abemaciclib (NSC768073), docetaxel (NSC628503), trametinib (NSC758246), and sapanisertib (NSC764658) were obtained from the National Cancer Institute (NCI) Developmental Therapeutics Program Chemical Repository. The FDA-approved anticancer drug set is available from the Developmental Therapeutics Program. […] The stock solutions were prepared in dimethyl sulfoxide (DMSO, Sigma-Aldrich, St. Louis, MO, cat. D2650) at 800-fold the tested concentration and stored at -70 degrees C prior to their use. All drugs and investigational agents were tested over a range starting from a high concentration at or near the clinical Cmax and decreasing in half-log increments. If the clinical Cmax for an agent had not been determined, the highest concentration tested was 10 microM.
Cell Culture. All cells were maintained in an incubator at 37 degrees C and 5% CO2 with 95% humidity. The PDC lines were cultured according to standard operating procedures established by the NCI PDMR (https://pdmr.cancer.gov/sops/default.htm). Briefly, all PDCs were thawed and cultured in Matrigel-coated flasks prepared with a working solution of 1X Ham's F-12 nutrient mix, without supplementation (Invitrogen, Waltham, MA, cat. 11765054), 100 U/mL penicillin-streptomycin (Invitrogen, cat. 15140122), and 2.5% Matrigel (Corning Inc., Corning, NY, cat. 354248) for the first three passages. All PDCs were cultured in complete DMEM/F-12 media containing advanced DMEM/F-12 (Invitrogen, cat. 12634028), 4.9% defined fetal bovine serum, heat inactivated (HyClone Laboratories Inc., Logan, UT, cat. SH30070.03HI), 389 ng/mL hydrocortisone (Sigma-Aldrich, cat. H4001), 9.7 ng/mL human EGF recombinant protein (Invitrogen, cat. PHG0313), 23.4 microg/mL adenine (Sigma-Aldrich, cat. A2786), 97.3 U/mL penicillin-streptomycin (Invitrogen, cat. 15140122), 1.9 mM L-glutamine (Invitrogen, cat. 25030081), and 9.7 microM Y-27632 dihydrochloride (Tocris Bioscience, Bristol, United Kingdom, cat. 1254). The PDCs were cultured in complete DMEM/F12 media without 9.7 microM Y-27632 dihydrochloride for at least two passages prior to the screen. The established cell line HOP-62 was cultured in RPMI 1640 medium, HEPES (Invitrogen, cat. 22400105) with 10% defined fetal bovine serum (HyClone Laboratories Inc., cat. SH30070.03) and 2 mM L-glutamine (Invitrogen, cat. 25030081). The pooled donor HUVEC were cultured in endothelial cell growth medium 2 (PromoCell, Heidelberg, Germany, cat. C-22011) and the hMSC were cultured in mesenchymal stem cell growth medium 2 (PromoCell, cat. C-28009). For all experiments, HUVEC and hMSC were used at passages </=5, while the malignant cell lines were used at passages </=15. […]

The mark [1] stands for this setting: curve of first compound, second compound 0.1 µM.
Where [2] appears, read: curve of first compound, second compound 0.316 µM.
Where [3] appears, read: curve of first compound, second compound 1 µM.
Where [4] appears, read: curve of first compound, second compound 3.16 µM.
[5] abbreviates: curve of first compound, second compound 10 µM.
[6] abbreviates: second compound 0.1 µM, first compound 0.0316 µM.
[7] abbreviates: second compound 0.1 µM, first compound 0.1 µM.
Where [8] appears, read: second compound 0.316 µM, first compound 0.0316 µM.
Where [9] appears, read: second compound 0.316 µM, first compound 0.1 µM.
Where [10] appears, read: second compound 1 µM, first compound 0.0316 µM.
Where [11] appears, read: second compound 1 µM, first compound 0.1 µM.
Where [12] appears, read: second compound 3.16 µM, first compound 0.0316 µM.
[13] abbreviates: second compound 3.16 µM, first compound 0.1 µM.
The mark [14] stands for this setting: second compound 10 µM, first compound 0.0316 µM.
[15] abbreviates: second compound 10 µM, first compound 0.1 µM.
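Further: compound exposure lasted seven days before readout.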

As to `CC1(C)CCC(CN2CCN(c3ccc(C(=O)NS(=O)(=O)c4ccc(NCC5CCOCC5)c([N+](=O)[O-])c4)c(Oc4cnc5[nH]ccc5c4)c3)CC2)=C(c2ccc(Cl)cc2)C1`, the viability, T/C (in general, the result in the treated group divided by that in the control group, in per cent) (compound 3.16 µM) was 79.3% [middle of 5 runs]. Besides, where the note is “curve of compound”, the pIC50 (usually −log10 of the IC50, conventionally taken in molar units) was < 5.00 and 5.03.

Take `COC(=O)c1ccc2c(C(=Nc3ccc(N(C)C(=O)CN4CCN(C)CC4)cc3)c3ccccc3)c(O)[nH]c2c1` + CNCc1ccccc1-c1csc(C(C)Nc2nc(C)nc3cc(OC)c(OC)cc23)c1: the pIC50 under setting [1] was < 5.00; the pIC50 under setting [2] is < 5.00; the pIC50 under setting [3] is < 5.00; the pIC50 under setting [4] is 5.63; the pIC50 under setting [5] is > 7.50. Further, the viability, T/C by setting is: under setting [6], 96.8%; under setting [7], 83.2%; (second compound 0.1 µM, first compound 0.316 µM) 77.4%; (second compound 0.1 µM, first compound 1 µM) 100%; (second compound 0.1 µM, first compound 3.16 µM) 92.4%; (second compound 0.1 µM, first compound 10 µM) 73.3%. Also, the viability, T/C is, setting by setting: under setting [8], 58.2%; under setting [9], 91.8%; (second compound 0.316 µM, first compound 0.316 µM) 57%; (second compound 0.316 µM, first compound 1 µM) 89.9%; (second compound 0.316 µM, first compound 3.16 µM) 90.5%; (second compound 0.316 µM, first compound 10 µM) 92%. Moreover, the viability, T/C under setting [10] was 66.9%; the viability, T/C under setting [11] was 110%; the viability, T/C (second compound 1 µM, first compound 0.316 µM) was 103%; the viability, T/C (second compound 1 µM, first compound 1 µM) was 57.1%; the viability, T/C (second compound 1 µM, first compound 3.16 µM) was 64.7%; the viability, T/C (second compound 1 µM, first compound 10 µM) is 70.4%. Besides, the viability, T/C is, setting by setting: under setting [12], 59.4%; under setting [13], 128%; (second compound 3.16 µM, first compound 0.316 µM) 73.3%; (second compound 3.16 µM, first compound 1 µM) 74.8%; (second compound 3.16 µM, first compound 3.16 µM) 40%; (second compound 3.16 µM, first compound 10 µM) 37.6%. Moreover, the viability, T/C was 0.86% under setting [14]; 0.39% under setting [15]; 0.42% (second compound 10 µM, first compound 0.316 µM); 0.31% (second compound 10 µM, first compound 1 µM); 0.28% (second compound 10 µM, first compound 3.16 µM); 1.62% (second compound 10 µM, first compound 10 µM).

Take `CN(C)C/C=C/C(=O)Nc1cc2c(Nc3ccc(F)c(Cl)c3)ncnc2cc1O[C@H]1CCOC1` + CNCc1ccccc1-c1csc(C(C)Nc2nc(C)nc3cc(OC)c(OC)cc23)c1: the pIC50 by setting is: under setting [1], < 7.00; under setting [2], < 7.00; under setting [3], < 7.00; under setting [4], 7.98; under setting [5], > 9.50. In addition, the viability, T/C is, setting by setting: (second compound 0.1 µM, first compound 0.000316 µM) 118%; (second compound 0.1 µM, first compound 0.001 µM) 89.8%; (second compound 0.1 µM, first compound 0.00316 µM) 70.9%; (second compound 0.1 µM, first compound 0.01 µM) 63.4%; under setting [6], 84%; under setting [7], 77.8%. For the same compound, the viability, T/C reads like this: (second compound 0.316 µM, first compound 0.000316 µM) 81.1%; (second compound 0.316 µM, first compound 0.001 µM) 74.8%; (second compound 0.316 µM, first compound 0.00316 µM) 70.2%; (second compound 0.316 µM, first compound 0.01 µM) 59.4%; under setting [8], 69.5%; under setting [9], 54.6%. The viability, T/C was 64.8% (second compound 1 µM, first compound 0.000316 µM); 59.2% (second compound 1 µM, first compound 0.001 µM); 55.2% (second compound 1 µM, first compound 0.00316 µM); 51% (second compound 1 µM, first compound 0.01 µM); 89.2% under setting [10]; 68.9% under setting [11]. The viability, T/C by setting is: (second compound 3.16 µM, first compound 0.000316 µM) 60.6%; (second compound 3.16 µM, first compound 0.001 µM) 61%; (second compound 3.16 µM, first compound 0.00316 µM) 47.7%; (second compound 3.16 µM, first compound 0.01 µM) 43.5%; under setting [12], 61.6%; under setting [13], 37.3%. In addition, the viability, T/C reads like this: (second compound 10 µM, first compound 0.000316 µM) 0.31%; (second compound 10 µM, first compound 0.001 µM) 0.87%; (second compound 10 µM, first compound 0.00316 µM) 0.47%; (second compound 10 µM, first compound 0.01 µM) 0.36%; under setting [14], 0.8%; under setting [15], 0.42%.
